The values that follow come from ChEMBL document CHEMBL5247680, “Design, Synthesis, and Biological Activity of Thioguanine-Modified Pleuromutilin Derivatives” (ACS Med Chem Lett, 2023).

Each structure is given as a SMILES string. Values after ≈ are worked out from the molar mass of the structure shown. Bounds are passed on as bounds.

The test system of test [1] is Staphylococcus epidermidis. Description: Antibacterial activity against Methicillin-sensitive Staphylococcus epidermidis ATCC 12228 assessed as bacterial growth inhibition incubated for 20 to 24 hrs by microbroth serial dilution assay. Type of test: functional. The conditions noted are these: time 20-24 hrs. On the technique in general: Broth dilution looks for growth in wells or tubes with falling amounts of substance.

Test [2] has as its system Staphylococcus epidermidis. Put plainly: Selectivity ratio of MBC for antibacterial activity against Methicillin-sensitive Staphylococcus epidermidis […] to MIC for antibacterial activity against Methicillin-sensitive Staphylococcus epidermidis […]. Type of test: functional.
The subject of test [3] is Staphylococcus aureus. Put plainly: Antibacterial activity against Staphylococcus aureus ATCC 25923 assessed as bacterial growth inhibition incubated for 20 to 24 hrs by microbroth serial dilution assay. Type of test: functional. The conditions noted are these: time 20-24 hrs.
In test [4] the test system is Staphylococcus aureus. Description: Antibacterial activity against Methicillin-sensitive Staphylococcus aureus ATCC 29213 assessed as bacterial growth inhibition incubated for 20 to 24 hrs by microbroth serial dilution assay.
Test [5] relates to Staphylococcus aureus. Put plainly: Antibacterial activity against Methicillin-resistant Staphylococcus aureus ATCC 43300 assessed as bacterial growth inhibition incubated for 20 to 24 hrs by microbroth serial dilution assay. The conditions noted are these: time 20-24 hrs. Type of test: functional.
Test [6] relates to Staphylococcus aureus. Description: Antibacterial activity against Methicillin-resistant Staphylococcus aureus ATCC 33591 assessed as bacterial growth inhibition incubated for 20 to 24 hrs by microbroth serial dilution assay. Type of test: functional. The conditions noted are these: time 20-24 hrs.
Test [7] relates to Staphylococcus aureus. Put plainly: Selectivity ratio of MBC for antibacterial activity against Staphylococcus aureus to MIC for antibacterial activity against Staphylococcus aureus. Type of test: functional.
Test [8] relates to Staphylococcus epidermidis. Description: Antibacterial activity against Methicillin-resistant Staphylococcus epidermidis ATCC 51625 assessed as bacterial growth inhibition incubated for 20 to 24 hrs by microbroth serial dilution assay. Type of test: functional. The conditions noted are these: time 20-24 hrs.
The subject of test [9] is Staphylococcus aureus. Description: Selectivity ratio of MBC for antibacterial activity against Methicillin-sensitive Staphylococcus aureus ATCC 29213 to MIC for antibacterial activity against Methicillin-sensitive Staphylococcus aureus ATCC 29213.

With `C=C[C@]1(C)C[C@@H](OC(=O)CSc2nc(N)nc3c2ncn3C(=O)NCc2ccc([N+](=O)[O-])cc2)[C@@]2(C)C3C(=O)CC[C@@]3(CC[C@H]2C)[C@@H](C)[C@@H]1O` (stereo partly specified), the MIC (commonly the lowest concentration that inhibits growth of the organism) was below 0.0078 µg/mL in test [1]; 0.125 µg/mL (≈ 0.177 µM) in the test with Staphylococcus aureus [3]; 0.0625 µg/mL (≈ 0.0885 µM) in the test on Staphylococcus aureus [4]; 0.25 µg/mL (≈ 0.354 µM) in the test with Staphylococcus aureus [5]; 0.25 µg/mL (≈ 0.354 µM) in the test on Staphylococcus aureus [6]; 0.0625 µg/mL (≈ 0.0885 µM) in test [8]. Besides, the Ratio (in test [2]; in the test with Staphylococcus aureus [7]) was above 4 throughout.

As to `C=C[C@]1(C)C[C@@H](OC(=O)CSc2nc(N)nc3c2ncn3C(=O)Nc2cccc(F)c2)[C@@]2(C)C3C(=O)CC[C@@]3(CC[C@H]2C)[C@@H](C)[C@@H]1O` (stereo partly specified), the MIC in [1] is 0.0156 µg/mL (≈ 0.0235 µM); in the test on Staphylococcus aureus [3] it was 0.25 µg/mL (≈ 0.376 µM); in the test with Staphylococcus aureus [4] it was 0.0625 µg/mL (≈ 0.094 µM); with Staphylococcus aureus [5], 0.25 µg/mL (≈ 0.376 µM); in the test with Staphylococcus aureus [6] it was 0.25 µg/mL (≈ 0.376 µM); in test [8], 0.125 µg/mL (≈ 0.188 µM). In addition, the Ratio (in test [2]; in the test with Staphylococcus aureus [7]) was above 4 in each case.

`C=C[C@]1(C)C[C@@H](OC(=O)CSc2nc(NC(=O)CN3CCC(O)CC3)nc3[nH]cnc23)[C@@]2(C)C3C(=O)CC[C@@]3(CC[C@H]2C)[C@@H](C)[C@@H]1O` (stereo partly specified): the MIC came out at 2 µg/mL (≈ 2.99 µM) in test [1]; 16 µg/mL (≈ 23.9 µM) in the test with Staphylococcus aureus [3]; 16 µg/mL (≈ 23.9 µM) in the test on Staphylococcus aureus [4]; 32 µg/mL (≈ 47.8 µM) in the test with Staphylococcus aureus [5]; 16 µg/mL (≈ 23.9 µM) in the test with Staphylococcus aureus [6]; 2 µg/mL (≈ 2.99 µM) in test [8]. The Ratio (in test [2]; in the test with Staphylococcus aureus [7]) was above 4 in each case.

On to `C=C[C@]1(C)C[C@@H](OC(=O)CSc2nc(N)nc3c2ncn3C(=O)c2ccc(C)cc2)[C@@]2(C)C3C(=O)CC[C@@]3(CC[C@H]2C)[C@@H](C)[C@@H]1O` (stereo partly specified), for which the MIC in test [1] was determined as 0.0078 µg/mL (≈ 0.0121 µM); in the test with Staphylococcus aureus [3] it was 0.125 µg/mL (≈ 0.194 µM); with Staphylococcus aureus [4], 0.125 µg/mL (≈ 0.194 µM); with Staphylococcus aureus [5] it was 0.25 µg/mL (≈ 0.387 µM); with Staphylococcus aureus [6], 0.125 µg/mL (≈ 0.194 µM); in test [8], 0.125 µg/mL (≈ 0.194 µM). Moreover, the Ratio (in [2]; in the test on Staphylococcus aureus [7]) was above 4 throughout.

`C=C[C@]1(C)C[C@@H](OC(=O)CSc2nc(N)nc3c2ncn3C(=O)CCc2ccccc2)[C@@]2(C)C3C(=O)CC[C@@]3(CC[C@H]2C)[C@@H](C)[C@@H]1O` (stereo partly specified): the MIC was 0.0156 µg/mL (≈ 0.0236 µM) in test [1]; 0.25 µg/mL (≈ 0.379 µM) with Staphylococcus aureus [3]; 0.125 µg/mL (≈ 0.189 µM) in the test on Staphylococcus aureus [4]; 0.125 µg/mL (≈ 0.189 µM) in the test on Staphylococcus aureus [5]; 0.125 µg/mL (≈ 0.189 µM) with Staphylococcus aureus [6]; 0.125 µg/mL (≈ 0.189 µM) in test [8]. For the same molecule, the Ratio is on record as above 4 in test [2], above 4 with Staphylococcus aureus [9] and 4 with Staphylococcus aureus [7].

Consider `C=C[C@]1(C)C[C@@H](OC(=O)CSc2nc(N)nc3c2ncn3C(=O)OC)[C@@]2(C)C3C(=O)CC[C@@]3(CC[C@H]2C)[C@@H](C)[C@@H]1O` (stereo partly specified), for which the MIC in [1] is 0.0625 µg/mL (≈ 0.107 µM); with Staphylococcus aureus [3] it was 0.125 µg/mL (≈ 0.213 µM); in the test with Staphylococcus aureus [4], 0.5 µg/mL (≈ 0.854 µM); with Staphylococcus aureus [5], 0.125 µg/mL (≈ 0.213 µM); in the test on Staphylococcus aureus [6], 0.125 µg/mL (≈ 0.213 µM); in test [8], 0.125 µg/mL (≈ 0.213 µM). Moreover, the Ratio (in test [2]; with Staphylococcus aureus [7]) was above 4 in each case.

`C=C[C@]1(C)C[C@@H](OC(=O)CSc2nc(N)nc3c2ncn3C(=O)NCc2ccc(C)cc2)[C@@]2(C)C3C(=O)CC[C@@]3(CC[C@H]2C)[C@@H](C)[C@@H]1O` (stereo partly specified): the MIC in [1] is below 0.0312 µg/mL; in the test on Staphylococcus aureus [3] it was 0.125 µg/mL (≈ 0.185 µM); in the test with Staphylococcus aureus [4], 0.125 µg/mL (≈ 0.185 µM); with Staphylococcus aureus [5] it was 0.0625 µg/mL (≈ 0.0926 µM); in the test with Staphylococcus aureus [6], 0.0625 µg/mL (≈ 0.0926 µM); in test [8], 0.0625 µg/mL (≈ 0.0926 µM). Also, the Ratio in test [2] is recorded as above 4; in the test on Staphylococcus aureus [9], 4; in the test on Staphylococcus aureus [7], above 4.

With `C=C[C@]1(C)C[C@@H](OC(=O)CSc2nc(N)nc3c2ncn3C(=O)Nc2ccccc2)[C@@]2(C)C3C(=O)CC[C@@]3(CC[C@H]2C)[C@@H](C)[C@@H]1O` (stereo partly specified), the MIC in [1] was found to be 0.0156 µg/mL (≈ 0.0241 µM); with Staphylococcus aureus [3], 0.125 µg/mL (≈ 0.193 µM); with Staphylococcus aureus [4], 0.125 µg/mL (≈ 0.193 µM); in the test with Staphylococcus aureus [5], 0.0625 µg/mL (≈ 0.0966 µM); in the test on Staphylococcus aureus [6], 0.125 µg/mL (≈ 0.193 µM); in test [8], 0.125 µg/mL (≈ 0.193 µM). Also, the Ratio is given as above 4 in test [2], 4 in the test on Staphylococcus aureus [9] and above 4 in the test with Staphylococcus aureus [7].

`C=C[C@]1(C)C[C@@H](OC(=O)CSc2nc(N)nc3c2ncn3C(=O)Nc2ccccc2OC)[C@@]2(C)C3C(=O)CC[C@@]3(CC[C@H]2C)[C@@H](C)[C@@H]1O` (stereo partly specified): the MIC in test [1] was found to be 0.0156 µg/mL (≈ 0.023 µM); in the test on Staphylococcus aureus [3], 0.25 µg/mL (≈ 0.369 µM); in the test on Staphylococcus aureus [4], 0.125 µg/mL (≈ 0.185 µM); in the test with Staphylococcus aureus [5], 0.25 µg/mL (≈ 0.369 µM); in the test on Staphylococcus aureus [6] it was 0.125 µg/mL (≈ 0.185 µM); in test [8], 0.125 µg/mL (≈ 0.185 µM). Also, the Ratio in test [2] was above 4; in the test on Staphylococcus aureus [9] it was 2; with Staphylococcus aureus [7], above 4.
